The values that follow come from patent US6552054B1, “Chromone derivatives, process for the preparation of the same and uses thereof” (Takeda Chemical Industries, Ltd., priority 1999, dated 2003).

The assay concerns stromal cells prepared from the femur bone marrow of a normal rat. The assay can be described thus: Osteogenesis promoting effect: alkaline phosphatase activity in cultured bone marrow stromal cells. Conditions: test compound 10^−5 M added from 2nd day of culture, cultured additional 5 days, mean ± S.E. (n = 4). The format is cell-based, rat (Sprague-Dawley). The procedure:
Osteogenesis promoting effect:
Using the stromal cells prepared from the femur bone marrow of a normal rat, an alkaline phosphatase activity was measured as an index of osteogenesis. Briefly, according to the method of Maniatopoulos et al. [Cell Tissue Research, volume 254, p.317 ([…])], the stromal cells were prepared from the femur bone of a Sprague-Dawley male rat, 7 weeks of age, and cultured in an α-MEM (minimum essential medium) solution containing dexamethasone (10^−7M) and β-glycerophosphoric acid (10^−2M) in order to generate calcified bony tissue. One week later, the confluent primary cells were treated with 0.25% trypsin-0.25% EDTA solution, recovered, and subclutured on a culture plate at a cell density of […], (cultured day 0). From the 2nd day of the culture, a test compound (10^−5M) was added to the above culture medium, and cultured for an additional 5 days. The cells were washed with a phosphate buffer, and after addition of 0.2% Nonidet P-40, they were homogenized and centrifuged at 3000 rpm for 10 minutes. The supernatant was measured for an alkaline phosphatase activity according to the method of Lowry et al. [Journal of Biological Chemistry, volume 207, p.19 (1954)]. Tables 1 and 2 show the measured values in terms of mean±standard error (SE). Statistical analysis was performed by means of the Student's t-test.

Setting [1] is: Table 1, control (no addition) 0.175 ± 0.009.
[2] abbreviates: Table 2, control (no addition) 0.180 ± 0.008.

Regarding `O=C(Nc1ccc(CN2CCOCC2)cc1)c1cc(=O)c2ccccc2o1` [Example no. 5, N-[4-[(4-morpholinyl)methyl]phenyl]-4-oxo-4H-1-benzopyran-2-carboxamide], the “Alkaline phosphatase activity (A405)” value under setting [1] stood at 0.558 ± 0.040 A405.
For `O=C1NC(=O)C(Cc2ccc(NC(=O)c3cc(=O)c4ccccc4o3)cc2)O1` (centres unmarked) [Example no. 2, N-[4-[(2,4-dioxo-1,3-oxazolidin-5-yl)methyl]phenyl]-4-oxo-4H-1-benzopyran-2-carboxamide], the “Alkaline phosphatase activity (A405)” value under setting [1] was found to be 0.310 ± 0.008 A405.
Same read-out and setting: the figure for `O=C1NC(=O)C(Cc2ccc(NC(=O)c3cc(=O)c4ccccc4o3)cc2)S1` (centres unmarked) [Example no. 1, N-[4-[(2,4-dioxo-1,3-thiazolidin-5-yl)methyl]phenyl]-4-oxo-4H-1-benzopyran-2-carboxamide] is 0.564 ± 0.041 A405.
`O=C1NC(=O)C(Cc2ccc(NC(=O)c3cc(=O)c4c(O)cc(O)cc4o3)cc2)S1` (centres unmarked) [Example no. 18]: the “Alkaline phosphatase activity (A405)” value under setting [2] was found to be 0.720 ± 0.037 A405.
Regarding `O=C1NC(=O)C(Cc2ccc(NC(=O)c3cc(=O)c4c(O)cccc4o3)cc2)S1` (centres unmarked) [Example no. 16, N-[4-[(2,4-dioxo-1,3-thiazolidin-5-yl)methyl]phenyl]-5-hydroxy-4-oxo-4H-1-benzopyran-2-carboxamide], the “Alkaline phosphatase activity (A405)” value under setting [2] turned out to be 0.720 ± 0.033 A405.
